Measurements reported in ChEMBL document CHEMBL1156618, “Design, synthesis and in vitro antitumor activity of 4-aminoquinoline and 4-aminoquinazoline derivatives targeting EGFR tyrosine kinase” (Bioorg Med Chem, 2008).
Calls of active or inactive are those of the source. The rule behind the calls is not given here.

System: MCF7
Assay: Cytotoxicity against human MCF7 cells after 48 hrs by SRB assay
Format: functional, cell-based

SMILES: CCOc1ccc2nc(C)cc(Nc3cccc(O)c3)c2c1
- IC50: 2.84 µM

SMILES: COc1cc2nc(Cl)nc(N3CCN(S(=O)(=O)c4ccc(C)cc4)CC3)c2cc1OC
- IC50: 1.08 µM

SMILES: CCOc1ccc2nc(C)cc(Nc3ccc(S(=O)(=O)Nc4cc(C)on4)cc3)c2c1
- IC50: 13.8 µM

SMILES: CCOc1ccc2nc(C)cc(N3CCN(C(=O)c4ccco4)CC3)c2c1
- IC50: 4.31 µM

SMILES: CCOc1ccc2nc(C)cc(Nc3cc(OC)c(OC)cc3C(=O)OC)c2c1
- IC50: 1.67 µM

SMILES: CCOc1ccc2nc(C)cc(Nc3ccc(S(=O)(=O)NC(=N)N)cc3)c2c1
- IC50: 19.2 µM

SMILES: COc1cc2nc(Cl)nc(Nc3ccc(S(=O)(=O)Nc4nccs4)cc3)c2cc1OC
- IC50: 0.13 µM

SMILES: CCOc1ccc2nc(C)cc(Nc3ccc(Cl)cc3Cl)c2c1
- IC50: 4.38 µM

SMILES: CCOc1ccc2nc(C)cc(Nc3ccc(S(=O)(=O)Nc4nccs4)cc3)c2c1
- Activity: inactive

SMILES: CCOc1ccc2nc(C)cc(Nc3ccc(S(=O)(=O)Nc4ncccn4)cc3)c2c1
- IC50: 3.96 µM

SMILES: COc1cc2nc(Cl)nc(Nc3ccc(S(=O)(=O)Nc4cc(C)on4)cc3)c2cc1OC
- IC50: 1.98 µM
